# Experiments:
# [1] = target: T1, O-acyltransferase (Canis lupus familiaris, UniProt A0A8I3N393); test: Inhibition of DGAT1 in dog liver microsomes; parameters: species or system Microsome
# T1 sequence (A0A8I3N393 whole entry): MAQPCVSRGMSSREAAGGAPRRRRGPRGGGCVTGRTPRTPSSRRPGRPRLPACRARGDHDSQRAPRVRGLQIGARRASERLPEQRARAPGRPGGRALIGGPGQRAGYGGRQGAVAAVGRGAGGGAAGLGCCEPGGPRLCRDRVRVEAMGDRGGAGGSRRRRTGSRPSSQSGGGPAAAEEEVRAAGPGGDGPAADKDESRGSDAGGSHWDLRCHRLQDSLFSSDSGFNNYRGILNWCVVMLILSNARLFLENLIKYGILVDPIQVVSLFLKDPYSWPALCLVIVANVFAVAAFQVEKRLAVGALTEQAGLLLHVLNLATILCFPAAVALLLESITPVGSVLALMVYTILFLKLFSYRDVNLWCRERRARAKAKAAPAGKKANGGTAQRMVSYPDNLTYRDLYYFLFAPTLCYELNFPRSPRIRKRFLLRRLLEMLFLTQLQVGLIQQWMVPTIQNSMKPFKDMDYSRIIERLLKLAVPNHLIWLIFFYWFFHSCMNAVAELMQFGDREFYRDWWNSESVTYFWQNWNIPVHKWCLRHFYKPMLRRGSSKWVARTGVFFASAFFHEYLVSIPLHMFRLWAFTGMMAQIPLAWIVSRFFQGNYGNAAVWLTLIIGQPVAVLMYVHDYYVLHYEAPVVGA
# [2] = Clearance in C57BL/6 mouse at 8.16 uM/kg, po or 5.4 uM/kg, iv; assay type: ADME, organism-based; details: in vivo
# [3] = Fraction unbound in mouse plasma; assay type: ADME, cell-free
# [4] = Volume of distribution in C57BL/6 mouse at 8.16 uM/kg, po or 5.4 uM/kg, iv; assay type: ADME, organism-based; details: in vivo
# [5] = target: T2, Diacylglycerol O-acyltransferase 1 (Homo sapiens, UniProt O75907); test: Inhibition of DGAT1 in human liver microsomes; parameters: species or system Microsome
# T2 sequence (O75907 whole entry): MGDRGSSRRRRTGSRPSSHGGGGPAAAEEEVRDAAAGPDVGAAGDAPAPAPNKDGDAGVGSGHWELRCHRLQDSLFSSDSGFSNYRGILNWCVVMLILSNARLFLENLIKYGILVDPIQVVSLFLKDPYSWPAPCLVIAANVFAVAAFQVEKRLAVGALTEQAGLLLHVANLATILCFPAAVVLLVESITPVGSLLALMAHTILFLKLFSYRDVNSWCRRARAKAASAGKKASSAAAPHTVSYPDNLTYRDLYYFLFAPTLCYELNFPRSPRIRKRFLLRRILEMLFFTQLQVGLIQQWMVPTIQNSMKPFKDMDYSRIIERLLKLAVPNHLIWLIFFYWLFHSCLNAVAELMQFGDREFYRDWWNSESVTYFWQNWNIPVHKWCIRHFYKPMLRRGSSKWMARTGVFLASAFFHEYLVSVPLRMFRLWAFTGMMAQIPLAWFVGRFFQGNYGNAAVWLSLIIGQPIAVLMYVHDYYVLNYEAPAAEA
# [6] = Volume of distribution in Beagle dog at 27.2 uM/kg, po or 1.4 uM/kg, iv; assay type: ADME, organism-based, Canis lupus familiaris; details: in vivo
# [7] = Intrinsic clearance in mouse hepatocytes assessed as parent compound disappearance at 1 uM per 10^6 cells; assay type: ADME, cell-based, Hepatocyte; details: read-out: CLH
# [8] = target: T2, Diacylglycerol O-acyltransferase 1; test: Inhibition of DGAT1 in human adipose tissue assessed as reduction in triacylglycerol synthesis
# [9] = Intrinsic clearance in rat hepatocytes assessed as parent compound disappearance at 1 uM per 10^6 cells; assay type: ADME, cell-based, Hepatocyte; details: read-out: CLH
# [10] = target: T3, Fatty-acid amide hydrolase 1 (Homo sapiens, UniProt O00519); test: Inhibition of FAAH
# T3 sequence (O00519 whole entry): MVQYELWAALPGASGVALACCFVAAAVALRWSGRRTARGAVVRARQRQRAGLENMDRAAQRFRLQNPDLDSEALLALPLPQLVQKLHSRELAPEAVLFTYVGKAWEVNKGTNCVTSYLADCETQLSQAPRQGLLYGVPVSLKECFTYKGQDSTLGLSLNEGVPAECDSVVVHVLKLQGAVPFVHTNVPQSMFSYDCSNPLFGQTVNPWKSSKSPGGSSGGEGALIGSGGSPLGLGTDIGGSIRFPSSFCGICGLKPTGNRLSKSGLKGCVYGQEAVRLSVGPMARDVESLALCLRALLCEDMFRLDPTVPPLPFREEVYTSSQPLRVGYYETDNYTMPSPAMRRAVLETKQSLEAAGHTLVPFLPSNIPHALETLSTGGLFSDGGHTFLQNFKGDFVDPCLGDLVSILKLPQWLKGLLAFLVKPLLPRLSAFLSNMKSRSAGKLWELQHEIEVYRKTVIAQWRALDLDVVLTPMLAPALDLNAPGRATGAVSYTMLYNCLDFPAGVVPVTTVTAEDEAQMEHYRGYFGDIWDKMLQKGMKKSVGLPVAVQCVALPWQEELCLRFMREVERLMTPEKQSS
# [11] = target: T2, Diacylglycerol O-acyltransferase 1; test: Inhibition of DGAT1 in human HuTu80 cells; assay type: cell-based
# [12] = Fraction unbound in rat plasma; assay type: ADME, cell-free
# [13] = target: cAMP and cAMP-inhibited cGMP 3',5'-cyclic phosphodiesterase 10A (Homo sapiens, UniProt Q9Y233); test: Inhibition of PDE10A1 […]
# [14] = target: T4, Cytochrome P450 1A2 (Homo sapiens, UniProt P05177); test: Inhibition of CYP1A2; assay type: ADME
# T4 sequence (P05177 whole entry): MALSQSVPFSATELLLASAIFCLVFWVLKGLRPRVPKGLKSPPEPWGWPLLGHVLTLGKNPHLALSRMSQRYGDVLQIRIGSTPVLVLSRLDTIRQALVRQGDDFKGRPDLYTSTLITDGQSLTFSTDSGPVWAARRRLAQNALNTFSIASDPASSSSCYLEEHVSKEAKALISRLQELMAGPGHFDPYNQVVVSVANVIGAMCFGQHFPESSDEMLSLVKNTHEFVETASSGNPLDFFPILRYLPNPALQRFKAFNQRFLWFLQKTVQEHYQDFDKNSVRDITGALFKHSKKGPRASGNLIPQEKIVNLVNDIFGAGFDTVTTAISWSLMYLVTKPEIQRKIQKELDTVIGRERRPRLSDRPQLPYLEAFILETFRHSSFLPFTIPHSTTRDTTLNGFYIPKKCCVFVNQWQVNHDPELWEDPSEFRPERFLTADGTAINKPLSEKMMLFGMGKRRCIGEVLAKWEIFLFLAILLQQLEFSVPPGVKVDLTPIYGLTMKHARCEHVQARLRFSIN
# [15] = Clearance in Beagle dog at 27.2 uM/kg, po or 1.4 uM/kg, iv; assay type: ADME, organism-based, Canis lupus familiaris; details: in vivo
# [16] = Octanol/water partition coefficient, log D of the compound at pH 7.4; assay type: physicochemical
# [17] = Intrinsic clearance in human hepatocytes assessed as parent compound disappearance at 1 uM per 10^6 cells; assay type: ADME, cell-based, Hepatocyte; details: read-out: CLH
# [18] = target: Voltage-gated inwardly rectifying potassium channel KCNH2 (Homo sapiens, UniProt Q12809); test: Inhibition of human ERG
# [19] = Clearance in Han-Wistar rat at 5.4 uM/kg, po or 2.7 uM/kg, iv; assay type: ADME, organism-based; details: in vivo
# Sequence of Voltage-gated inwardly rectifying potassium channel KCNH2 (Q12809 whole entry): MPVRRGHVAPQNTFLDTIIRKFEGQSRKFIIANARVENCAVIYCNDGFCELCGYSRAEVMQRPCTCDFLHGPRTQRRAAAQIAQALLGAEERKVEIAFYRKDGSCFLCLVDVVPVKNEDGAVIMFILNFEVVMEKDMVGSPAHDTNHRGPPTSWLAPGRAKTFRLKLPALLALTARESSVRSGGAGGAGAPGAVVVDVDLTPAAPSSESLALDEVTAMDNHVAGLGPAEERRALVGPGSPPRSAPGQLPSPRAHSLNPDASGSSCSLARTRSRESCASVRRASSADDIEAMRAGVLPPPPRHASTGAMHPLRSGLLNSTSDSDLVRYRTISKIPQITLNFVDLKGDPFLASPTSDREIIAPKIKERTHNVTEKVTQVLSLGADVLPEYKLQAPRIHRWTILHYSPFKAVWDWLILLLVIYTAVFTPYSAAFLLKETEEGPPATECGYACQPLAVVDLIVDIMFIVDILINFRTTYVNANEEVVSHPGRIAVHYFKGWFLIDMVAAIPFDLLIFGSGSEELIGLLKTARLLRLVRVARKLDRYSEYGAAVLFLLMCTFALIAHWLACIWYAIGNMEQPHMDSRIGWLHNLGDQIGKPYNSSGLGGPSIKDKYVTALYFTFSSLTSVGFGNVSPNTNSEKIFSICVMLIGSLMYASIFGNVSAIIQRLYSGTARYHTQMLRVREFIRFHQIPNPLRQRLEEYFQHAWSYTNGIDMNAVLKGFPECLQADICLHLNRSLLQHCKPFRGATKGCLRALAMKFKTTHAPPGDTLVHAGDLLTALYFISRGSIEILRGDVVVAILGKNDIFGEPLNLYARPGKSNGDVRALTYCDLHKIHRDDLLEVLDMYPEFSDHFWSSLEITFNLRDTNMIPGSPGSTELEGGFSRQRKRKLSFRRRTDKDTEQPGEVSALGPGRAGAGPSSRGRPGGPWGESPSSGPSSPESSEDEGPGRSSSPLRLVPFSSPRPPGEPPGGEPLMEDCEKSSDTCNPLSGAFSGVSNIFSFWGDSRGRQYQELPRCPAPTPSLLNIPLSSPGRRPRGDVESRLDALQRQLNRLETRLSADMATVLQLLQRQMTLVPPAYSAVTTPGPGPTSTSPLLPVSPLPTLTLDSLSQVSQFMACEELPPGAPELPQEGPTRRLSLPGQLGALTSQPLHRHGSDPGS
# Sequence of cAMP and cAMP-inhibited cGMP 3',5'-cyclic phosphodiesterase 10A (Q9Y233 whole entry): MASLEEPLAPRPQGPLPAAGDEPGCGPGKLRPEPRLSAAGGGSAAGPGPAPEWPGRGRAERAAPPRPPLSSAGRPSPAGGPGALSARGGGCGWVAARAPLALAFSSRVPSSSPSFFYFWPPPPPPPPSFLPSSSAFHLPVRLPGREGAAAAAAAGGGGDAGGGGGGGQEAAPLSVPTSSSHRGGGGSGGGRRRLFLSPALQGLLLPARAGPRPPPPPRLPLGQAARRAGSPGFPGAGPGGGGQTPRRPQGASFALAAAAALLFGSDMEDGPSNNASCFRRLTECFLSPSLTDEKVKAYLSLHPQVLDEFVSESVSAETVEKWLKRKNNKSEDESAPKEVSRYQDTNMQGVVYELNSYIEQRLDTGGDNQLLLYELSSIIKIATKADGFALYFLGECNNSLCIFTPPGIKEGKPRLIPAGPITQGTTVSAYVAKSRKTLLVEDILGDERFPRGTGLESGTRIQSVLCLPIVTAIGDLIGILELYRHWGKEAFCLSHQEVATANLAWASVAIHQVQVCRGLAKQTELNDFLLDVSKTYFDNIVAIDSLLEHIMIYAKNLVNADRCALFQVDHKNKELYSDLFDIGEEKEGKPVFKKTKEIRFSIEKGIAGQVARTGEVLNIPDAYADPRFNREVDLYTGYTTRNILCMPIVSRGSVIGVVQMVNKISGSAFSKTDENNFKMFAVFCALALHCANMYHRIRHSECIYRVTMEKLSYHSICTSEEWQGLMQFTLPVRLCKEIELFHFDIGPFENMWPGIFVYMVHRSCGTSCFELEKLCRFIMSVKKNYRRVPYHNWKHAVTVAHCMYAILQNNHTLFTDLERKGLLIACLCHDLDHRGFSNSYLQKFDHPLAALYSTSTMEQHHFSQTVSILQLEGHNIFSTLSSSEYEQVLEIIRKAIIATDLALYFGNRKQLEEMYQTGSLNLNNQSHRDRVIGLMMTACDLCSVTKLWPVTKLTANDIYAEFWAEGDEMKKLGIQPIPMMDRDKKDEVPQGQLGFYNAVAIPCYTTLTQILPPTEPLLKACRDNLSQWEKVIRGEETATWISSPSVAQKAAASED
smiles,measurement,setting,value
Cc1nc(C)c(-c2ccc(C3CCC(CC(=O)O)CC3)cc2)nc1C(N)=O (centres undefined) [AZD-7687],IC50,[1],60 nM
same,clearance,[2],0.77 mL/min/kg
same,fraction unbound,[3],0.1
same,Vd,[4],0.9 L/kg
same,IC50,[5],70 nM
same,Vd,[6],1 L/kg
same,hepatocyte CLint at 1 µM,[7],7.3 µL/min/1e6 cells
same,IC50,[8],10 nM
same,hepatocyte CLint at 1 µM,[9],< 2 µL/min/1e6 cells
same,IC50,[10],3700 nM
same,IC50,[11],10 nM
same,fraction unbound,[12],0.03
same,IC50,[13],5500 nM
same,IC50,[14],> 30000 nM
same,clearance,[15],1.2 mL/min/kg
same,logD,[16],0.9
same,hepatocyte CLint at 1 µM,[17],< 2 µL/min/1e6 cells
same,IC50,[18],> 32000 nM
same,clearance,[19],0.5 mL/min/kg
